From article PMC13184981, “Discovery and Development of a Potent LIMK2 Isoform-Specific Degrader” (ACS Chemical Biology, 2026)

Assays:
[1] = Microsomal stability assay; type: in vitro ADME; details: rat liver microsomes
Procedure: The solubilized test compound (5 μL, final concentration 10 μM) was preincubated at 37 °C in 432 μL of 0.1 M phosphate buffer (pH 7.4) together with 50 μL of an NADPH-regenerating system containing 30 mM glucose-6-phosphate, 4 U/mL glucose-6-phosphate dehydrogenase, 10 mM NADP, and 30 mM MgCl2. After 5 min, the reaction was initiated by adding 13 μL of rat liver microsomes (Sprague–Dawley, Invitrogen; 20 mg mL^–1 protein in 0.1 M phosphate buffer) and incubated in a shaking water bath at 37 °C. The reaction was quenched at 0, 15, 30, and 60 min by adding 500 μL of ice-cold methanol. Samples were centrifuged at 5,000 × g for 5 min at 4 °C, and the supernatants were analyzed by HPLC to quantify the remaining parent compound. HPLC conditions were as follows: mobile phase composed of methanol (40–90%) and water with 0.1% formic acid (10–60%), optimized for the test compound; flow rate 1 mL/min; stationary phase Purospher STAR RP-18 column (5 μm, 125 × 4 mm) with a guard column (5 μm, 4 × 4 mm); detection wavelengths at 254 and 280 nm; injection volume 50 μL. […] Compound concentrations were determined using an external calibration curve. Data are expressed as mean ± SEM of the remaining parent compound from three independent experiments.

[2] = biological target: T1, NanoLuc-tagged LIMK1 and Halo-tagged CRBN (Homo sapiens, UniProt P53667+Q96SW2); experiment: NanoBRET cellular ternary complex formation, LIMK1; type: cell-based
T1 construct: CRBN vector in-house NV3391; host or cells: HEK293T
T1 sequence (P53667 whole entry): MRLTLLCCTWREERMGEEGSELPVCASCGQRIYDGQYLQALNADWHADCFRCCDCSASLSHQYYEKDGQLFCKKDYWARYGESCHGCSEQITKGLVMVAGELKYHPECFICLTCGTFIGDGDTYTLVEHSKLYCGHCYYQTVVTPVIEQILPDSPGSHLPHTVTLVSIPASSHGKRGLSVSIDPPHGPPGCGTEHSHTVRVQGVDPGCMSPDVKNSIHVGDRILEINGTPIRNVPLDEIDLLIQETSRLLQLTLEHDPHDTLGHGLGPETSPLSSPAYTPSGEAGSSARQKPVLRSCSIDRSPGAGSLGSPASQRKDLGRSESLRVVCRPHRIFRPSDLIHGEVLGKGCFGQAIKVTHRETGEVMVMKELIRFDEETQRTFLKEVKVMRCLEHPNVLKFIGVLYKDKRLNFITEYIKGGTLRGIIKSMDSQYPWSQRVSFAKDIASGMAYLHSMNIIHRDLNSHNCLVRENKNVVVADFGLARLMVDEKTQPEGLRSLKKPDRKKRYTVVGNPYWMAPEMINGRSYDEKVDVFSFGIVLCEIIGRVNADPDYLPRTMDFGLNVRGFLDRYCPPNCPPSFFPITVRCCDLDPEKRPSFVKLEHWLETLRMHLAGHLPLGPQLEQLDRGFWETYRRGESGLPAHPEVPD
T1 sequence (Q96SW2 whole entry): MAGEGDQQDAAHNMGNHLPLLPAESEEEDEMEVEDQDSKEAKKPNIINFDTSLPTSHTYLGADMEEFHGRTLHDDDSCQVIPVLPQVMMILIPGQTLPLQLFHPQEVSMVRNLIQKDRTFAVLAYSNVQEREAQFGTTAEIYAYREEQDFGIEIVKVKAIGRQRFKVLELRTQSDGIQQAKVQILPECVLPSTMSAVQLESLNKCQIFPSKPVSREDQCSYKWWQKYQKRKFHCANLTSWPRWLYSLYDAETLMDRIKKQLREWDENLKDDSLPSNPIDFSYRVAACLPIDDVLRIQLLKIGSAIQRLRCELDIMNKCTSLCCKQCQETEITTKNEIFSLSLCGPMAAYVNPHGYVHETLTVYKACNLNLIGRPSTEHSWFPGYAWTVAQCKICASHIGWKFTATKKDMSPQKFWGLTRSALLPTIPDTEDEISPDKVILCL
T1 sequence (Q16531 whole entry partner): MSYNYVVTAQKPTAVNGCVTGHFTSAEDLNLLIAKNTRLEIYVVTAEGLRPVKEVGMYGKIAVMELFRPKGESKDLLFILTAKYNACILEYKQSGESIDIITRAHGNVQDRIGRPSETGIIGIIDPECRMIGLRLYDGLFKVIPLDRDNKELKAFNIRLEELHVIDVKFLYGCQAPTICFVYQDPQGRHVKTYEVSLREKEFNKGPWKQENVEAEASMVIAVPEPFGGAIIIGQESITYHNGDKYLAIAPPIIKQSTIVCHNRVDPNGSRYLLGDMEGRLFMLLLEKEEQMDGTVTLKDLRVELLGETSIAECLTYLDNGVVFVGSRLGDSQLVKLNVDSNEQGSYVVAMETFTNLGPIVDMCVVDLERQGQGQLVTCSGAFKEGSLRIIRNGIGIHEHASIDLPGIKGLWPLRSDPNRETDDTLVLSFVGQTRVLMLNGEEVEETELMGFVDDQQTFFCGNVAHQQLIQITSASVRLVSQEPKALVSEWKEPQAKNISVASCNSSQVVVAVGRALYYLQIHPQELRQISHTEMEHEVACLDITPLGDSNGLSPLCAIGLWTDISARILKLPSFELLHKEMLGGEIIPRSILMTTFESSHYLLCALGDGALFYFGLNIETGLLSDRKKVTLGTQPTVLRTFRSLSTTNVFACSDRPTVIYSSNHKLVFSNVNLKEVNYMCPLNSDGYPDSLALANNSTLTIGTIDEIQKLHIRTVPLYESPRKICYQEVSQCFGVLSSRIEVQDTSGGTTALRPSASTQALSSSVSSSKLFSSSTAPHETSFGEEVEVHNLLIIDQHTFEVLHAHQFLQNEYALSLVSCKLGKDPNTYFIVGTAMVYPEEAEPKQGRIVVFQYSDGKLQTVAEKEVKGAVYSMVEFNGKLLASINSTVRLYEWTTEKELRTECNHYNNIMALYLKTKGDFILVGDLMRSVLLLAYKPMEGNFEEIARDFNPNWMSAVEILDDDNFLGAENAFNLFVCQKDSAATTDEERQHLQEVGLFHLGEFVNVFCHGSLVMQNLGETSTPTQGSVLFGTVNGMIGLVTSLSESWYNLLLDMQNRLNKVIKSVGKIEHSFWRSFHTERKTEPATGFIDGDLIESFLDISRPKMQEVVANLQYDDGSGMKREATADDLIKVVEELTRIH
From the text: Next, we assessed ternary complex formation for the parent and lead PROTACs in live cells using the NanoBRET proximity assay. A ternary complex assay system was established using NanoLuc-tagged LIMKs and Halo-tagged CRBN. Formation of the ternary complex upon PROTAC addition was quantified by measuring the BRET signal. […] However, they differed in the strength of the ternary complex. […] We also confirmed the differences in ternary complex strength using the orthogonal PROXICapture approach, in which MOLT-4 cell lysate was passed over immobilized FLAG-tagged CRBN preincubated with THNAN69.
Gene encoding LIMK1 (Promega, NV3391) and LIMK2 (Promega, NV1531) proteins cloned in frame with NanoLuc fusion tag at the C-Terminus and gene encoding cereblon (generated in-house) cloned in frame with Halo Tag at the N-Terminus, were used to measure the end-point ternary complex formation between the PROTACs and LIMK1 and LIMK2, respectively. […] To measure BRET, NanoBRET NanoGlo Substrate + Extracellular NanoLuc Inhibitor (Promega, N2162) was added to cells as per the manufacturer’s protocol, and filtered luminescence was measured on a PHERAstar FSX plate reader (BMG Labtech) equipped with a luminescence filter pair (450 nm BP filter (donor) and 610 nm LP filter (acceptor)). […]

Cc1c(OCc2cn(CCCCC(=O)Nc3ncc(-c4cc(C(F)F)nn4-c4c(Cl)cccc4Cl)s3)nn2)cccc1N1CCC(=O)NC1=O [22b]
metabolic stability (in words) [1]: favorable metabolic stability | parent PROTAC remaining ([1]; 60 min, 10 μM, HPLC): 85% | EC50 [2]: 300 nM
